Source: PubChem BioAssay (NCI)
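Grown in 96-well plates, cells were treated for 48 hours with each compound at five concentrations. Insufficient inhibition: endpoint recorded as highest concentration tested. The concentration for full growth arrest is given as TGI.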

Experiments:
Test in all cases: NCI-60 cell line screen, 48 h
HOP-62 NSCLC = test system: HOP-62 NSCLC
OVCAR-5 ovarian = test system: OVCAR-5 ovarian
OVCAR-4 ovarian = test system: OVCAR-4 ovarian
K-562 leukemia = test system: K-562 leukemia
KM12 colon = test system: KM12 colon
BT-549 breast = test system: BT-549 breast
MOLT-4 leukemia = test system: MOLT-4 leukemia
MDA-N = test system: MDA-N
UACC-62 melanoma = test system: UACC-62 melanoma
PC-3 prostate = test system: PC-3 prostate
HCT-116 colon = test system: HCT-116 colon
M14 melanoma = test system: M14 melanoma
SF-295 CNS = test system: SF-295 CNS
SNB-75 CNS = test system: SNB-75 CNS

## O=C(NC1CCN(Cc2ccccc2)CC1)c1ccc(I)cc1
HOP-62 NSCLC
  TGI: > 100 µM
OVCAR-5 ovarian
  TGI: > 100 µM
OVCAR-4 ovarian
  TGI: > 100 µM
K-562 leukemia
  TGI: > 100 µM
KM12 colon
  TGI: > 100 µM
BT-549 breast
  TGI: > 100 µM
MOLT-4 leukemia
  TGI: > 100 µM
MDA-N
  TGI: > 100 µM
UACC-62 melanoma
  TGI: > 100 µM
PC-3 prostate
  TGI: > 100 µM
HCT-116 colon
  TGI: > 100 µM
M14 melanoma
  TGI: > 100 µM
SF-295 CNS
  TGI: > 100 µM

## NC1CC(=O)c2c1sc(Cl)c2Cl (stereo not drawn)
HOP-62 NSCLC
  TGI: > 100 µM
OVCAR-5 ovarian
  TGI: > 100 µM
K-562 leukemia
  TGI: > 100 µM
KM12 colon
  TGI: > 100 µM
BT-549 breast
  TGI: > 100 µM
MOLT-4 leukemia
  TGI: > 100 µM
MDA-N
  TGI: > 100 µM
UACC-62 melanoma
  TGI: > 100 µM
PC-3 prostate
  TGI: > 100 µM
HCT-116 colon
  TGI: > 100 µM
M14 melanoma
  TGI: > 100 µM
SNB-75 CNS
  TGI: > 100 µM

## Oc1ccc2cc(Br)ccc2c1-c1c(O)ccc2ccc(Br)cc12
HOP-62 NSCLC
  TGI: 28.5 µM
OVCAR-5 ovarian
  TGI: 30.8 µM
K-562 leukemia
  TGI: 35.8 µM
KM12 colon
  TGI: 18.9 µM
BT-549 breast
  TGI: 27.9 µM
MOLT-4 leukemia
  TGI: 20.4 µM
MDA-N
  TGI: 24.6 µM
UACC-62 melanoma
  TGI: 31 µM
PC-3 prostate
  TGI: 25.3 µM
HCT-116 colon
  TGI: 27.4 µM
M14 melanoma
  TGI: 33.1 µM
SF-295 CNS
  TGI: 30.6 µM

## Cc1nc2ccc(C(F)(F)F)cc2nc1NCc1ccc(Cl)c(Cl)c1
HOP-62 NSCLC
  TGI: 27.5 µM
OVCAR-5 ovarian
  TGI: 25.9 µM
K-562 leukemia
  TGI: 42.2 µM
KM12 colon
  TGI: 30.1 µM
BT-549 breast
  TGI: 39.7 µM
MOLT-4 leukemia
  TGI: 35.8 µM
MDA-N
  TGI: 32 µM
UACC-62 melanoma
  TGI: 18.5 µM
PC-3 prostate
  TGI: 25.6 µM
HCT-116 colon
  TGI: 32 µM
SNB-75 CNS
  TGI: 26.9 µM
SF-295 CNS
  TGI: 32.2 µM

## COC(=O)c1ccc(S)c(S(=O)(=O)Nc2n[nH]c(N)n2)c1
OVCAR-5 ovarian
  TGI: > 100 µM
OVCAR-4 ovarian
  TGI: > 100 µM
K-562 leukemia
  TGI: > 100 µM
KM12 colon
  TGI: > 100 µM
BT-549 breast
  TGI: > 100 µM
MOLT-4 leukemia
  TGI: > 100 µM
MDA-N
  TGI: > 100 µM
UACC-62 melanoma
  TGI: > 100 µM
PC-3 prostate
  TGI: > 100 µM
HCT-116 colon
  TGI: > 100 µM
M14 melanoma
  TGI: > 100 µM
SF-295 CNS
  TGI: > 100 µM

## CCC(=O)C(CCN1CCC2(CCCc3ccccc32)CC1)(c1ccccc1)c1ccccc1
HOP-62 NSCLC
  TGI: 8.91 µM
OVCAR-5 ovarian
  TGI: 14.7 µM
OVCAR-4 ovarian
  TGI: 18.7 µM
KM12 colon
  TGI: 4.64 µM
BT-549 breast
  TGI: 3.36 µM
MDA-N
  TGI: 10.9 µM
UACC-62 melanoma
  TGI: 10.7 µM
PC-3 prostate
  TGI: 8.87 µM
HCT-116 colon
  TGI: 3.22 µM
M14 melanoma
  TGI: 4.56 µM
SNB-75 CNS
  TGI: > 27.2 µM
SF-295 CNS
  TGI: 4.9 µM

## CC(C)(C)C1=CC(C)(n2[nH]c(=O)n(-c3ccccc3)c2=O)C=C(C(C)(C)C)C1=O
OVCAR-4 ovarian
  TGI: > 100 µM
K-562 leukemia
  TGI: > 100 µM
KM12 colon
  TGI: > 100 µM
BT-549 breast
  TGI: > 100 µM
MDA-N
  TGI: > 100 µM
UACC-62 melanoma
  TGI: > 100 µM
PC-3 prostate
  TGI: > 100 µM
HCT-116 colon
  TGI: > 100 µM
SNB-75 CNS
  TGI: > 100 µM
SF-295 CNS
  TGI: > 100 µM
